Data reported in patent publication US20130045952A1, “ABA Receptor Agonists for Increased Plant Stress Resistance” (Van Andel Research Institute, priority 2011, published 2013).

What was measured:
Type in all cases: biochemical
ABI2 = target: T1, ABI2 (Arabidopsis thaliana, UniProt O04719+O49686); assay: PP2C phosphatase activity assay, ABI2; settings: 200 nM PP2C; SnRK2.6 phosphopeptide substrate; None = 100
T1 construct: ABI1 (residues 117-434) and ABI2 (residues 101-423) were expressed as H6Sumo fusion proteins; H6Sumo (N); made in house; host or cells: E. coli BL21
T1 sequence (O04719 101-423 limits assumed): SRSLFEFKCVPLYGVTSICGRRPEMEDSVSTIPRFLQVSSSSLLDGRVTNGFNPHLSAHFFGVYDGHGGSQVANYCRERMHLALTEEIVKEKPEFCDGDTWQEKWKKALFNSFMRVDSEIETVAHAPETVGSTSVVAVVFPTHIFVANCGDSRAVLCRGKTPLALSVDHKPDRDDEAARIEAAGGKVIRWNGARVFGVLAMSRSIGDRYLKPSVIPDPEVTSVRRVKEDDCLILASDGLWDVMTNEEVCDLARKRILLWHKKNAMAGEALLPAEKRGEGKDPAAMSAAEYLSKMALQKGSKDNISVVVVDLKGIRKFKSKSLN
T1 sequence (O49686 1-191): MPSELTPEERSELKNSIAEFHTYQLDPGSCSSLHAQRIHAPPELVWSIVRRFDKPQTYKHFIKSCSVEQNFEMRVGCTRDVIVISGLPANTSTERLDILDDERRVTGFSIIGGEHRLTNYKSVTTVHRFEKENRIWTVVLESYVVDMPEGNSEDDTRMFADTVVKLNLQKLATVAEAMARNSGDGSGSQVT
Protocol: (§1) Mutant proteins were expressed as H6GST-fusion proteins and purified by glutathione sepharose chromatography. Protein-protein interactions were determined by luminescence proximity AlphaScreen assay. Biotinylated PP2C proteins for the luminescence proximity assay were generated by in vivo biotinylation of avitag-PP2C fusion proteins. PP2C phosphatase activity was measured by phosphate release from a SnRK2.6 phosphoprotein.
PP2Cs and PYR/PYL proteins were pre-incubated at the indicated concentrations in 50 mM imidazole, pH 7.2, 5 mM MgCl2, 0.1% β-mercaptoethanol and 0.5 mg/ml BSA for 30 min at room temperature. Reactions were started by addition of 100 μM of a phosphopeptide corresponding to amino acids 170-180 of SnRK2.6 (HSQPK^pSTVGTP). This peptide is phosphorylated at a single residue corresponding to Ser175 in SnRK2.6, whose phosphorylation is required for SnRK2.6 kinase activity^32. Phosphate release from ^pS175 from the phosphopeptide was determined by colorimetric assay (BioVision).

His6-PYL1 / biotin-PP2C = target: T2, His6-PYL1 / biotin-PP2C (Arabidopsis thaliana, UniProt Q8VZS8); assay: AlphaScreen luminescence proximity assay, PYL1-PP2C interaction; settings: for Stimulation of the interaction between PYL1 and PP2C (binding signal): 100 nM His6-PYL1, 100 nM biotin-PP2C, 100 μM agonist, normalized against a pyrabactin control
T2 construct: PYL1 (residues 36-211), PYL2 (residues 14-188), and HAB1 (residues 172-511) were prepared as recombinant proteins in E. coli; made in house; host or cells: E. coli
T2 sequence (Q8VZS8 36-211): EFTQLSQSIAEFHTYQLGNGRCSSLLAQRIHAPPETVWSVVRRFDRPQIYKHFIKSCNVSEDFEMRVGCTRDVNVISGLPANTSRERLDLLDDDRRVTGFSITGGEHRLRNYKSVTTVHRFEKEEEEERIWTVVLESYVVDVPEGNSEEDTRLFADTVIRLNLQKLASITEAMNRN
Protocol: as §1
(§2) Interactions between PYR/PYL and PP2Cs were assessed by luminescence-proximity AlphaScreen technology (Perkin Elmer). Briefly, biotinylated PP2Cs were attached to streptavidin-coated donor beads, and H6-tagged PYR/PYL receptors were attached to nickel-chelated acceptor beads. The donor and acceptor beads were brought into proximity by the interactions between PYR/PYLs and PP2Cs, which were measured with and without ligands. When excited by a laser beam of 680 nm, the donor beam emits singlet oxygen that activates thioxene derivatives in the acceptor beads, which releases photons of 520-620 nm as the binding signal. The experiments were conducted with 100 nM of PP2Cs and PYR/PYL proteins in the presence of 5 ug/ml donor and acceptor beads in a buffer of 50 mM MOPS, pH7.4, 50 mM NaF, […], and 0.1 mg/ml bovine serum albumin. The results were based on an average of three experiments with standard errors typically less than 10% of the measurements.
(§3) Values were determined in different experiments and normalized against a pyrabactin control. Blank spaces mean no experimental data is available. Key (photon counts (binding signal units) in Alphascreen luminescence proximity assay): “+++ is >75,000; ++ is 25,000−75,000; + is <25,000.

His6-PYR1 / biotin-ABI1 = target: T3, His6-PYR1 / biotin-ABI1 (Arabidopsis thaliana, UniProt O49686); assay: AlphaScreen dose response, PYR1-ABI1 interaction; settings: 100 nM His6-PYR1, 100 nM biotin-PP2C, 0-100 μM agonist; from dose response curves
T3 construct: made in house; host or cells: E. coli (stated for the PP2Cs; not expressly for PYR1)
T3 sequence (O49686 1-191): T1 sequence (O49686 1-191)
T3 sequence (P49597 117-434 partner limits assumed): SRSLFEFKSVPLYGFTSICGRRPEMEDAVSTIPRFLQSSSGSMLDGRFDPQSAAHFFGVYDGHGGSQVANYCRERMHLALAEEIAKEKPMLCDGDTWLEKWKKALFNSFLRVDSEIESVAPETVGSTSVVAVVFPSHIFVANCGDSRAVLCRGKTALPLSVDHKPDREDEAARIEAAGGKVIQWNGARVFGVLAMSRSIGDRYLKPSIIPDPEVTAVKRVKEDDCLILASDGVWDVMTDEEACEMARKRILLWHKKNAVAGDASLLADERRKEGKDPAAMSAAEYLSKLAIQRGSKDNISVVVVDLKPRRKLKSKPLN
Protocol: as §2
(§4) The results shown in Table 5b were calculated from the dose response curves of the dependence of the interaction between 100 nM His6-PYR1 and 100 nM biotin-PP2C on the presence of 0-100 μM agonists determined by AlphaScreen luminescence proximity assay. Key (EC50 in μM): ++++=<5.0 μM; +++=5-10 μM; ++=10-20 μM; and +=>20-60 μM.

His6-PYL3 / biotin-PP2C = target: T4, His6-PYL3 / biotin-PP2C (Arabidopsis thaliana, UniProt Q9SSM7); assay: AlphaScreen luminescence proximity assay, PYL3-PP2C interaction; settings: for Stimulation of the interaction between PYL3 and PP2C (binding signal): 100 nM His6-PYL3, 100 nM biotin-PP2C, 100 μM agonist, normalized against a pyrabactin control
T4 construct: made in house; host or cells: not expressly stated for PYL3
T4 sequence (Q9SSM7 1-209): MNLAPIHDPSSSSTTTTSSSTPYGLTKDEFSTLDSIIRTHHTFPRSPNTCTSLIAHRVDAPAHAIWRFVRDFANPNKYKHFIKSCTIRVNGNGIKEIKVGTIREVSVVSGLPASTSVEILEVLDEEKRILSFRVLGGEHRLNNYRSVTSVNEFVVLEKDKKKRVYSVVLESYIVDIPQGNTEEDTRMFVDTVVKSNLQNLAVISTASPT
Protocol: as §1, §2, §3

His6-PYR1 / biotin-ABI2 = target: T5, His6-PYR1 / biotin-ABI2 (Arabidopsis thaliana, UniProt O49686); assay: AlphaScreen dose response, PYR1-ABI2 interaction; settings: 100 nM His6-PYR1, 100 nM biotin-PP2C, 0-100 μM agonist; from dose response curves
T5 construct: made in house; host or cells: E. coli (stated for the PP2Cs; not expressly for PYR1)
T5 sequence (O49686 1-191): T1 sequence (O49686 1-191)
T5 sequence (O04719 101-423 partner limits assumed): T1 sequence (O04719 101-423 limits assumed)
Protocol: as §2, §4

[1] = purified proteins in vitro, HAB1, ABI1, ABI2

% Phosphatase Activity ABI2 (ABI2) [%] | Stimulation of the interaction between PYL1 and PP2C (binding signal) (His6-PYL1 / biotin-PP2C) | EC50 (His6-PYR1 / biotin-ABI1) [µM] | Stimulation of the interaction between PYL3 and PP2C (binding signal) (His6-PYL3 / biotin-PP2C) | EC50 (His6-PYR1 / biotin-ABI2) [µM] | SMILES | Promotion of PYL1 interaction with the three PP2Cs (His6-PYL1 / biotin-PP2C; [1]) | Agonist activity in wildtype PYL1 (His6-PYL1 / biotin-PP2C; wildtype PYL1) | Promotion of PYL3 interaction with the three PP2Cs (His6-PYL3 / biotin-PP2C; [1])
3.8 ± 0.6 | + (+ is <25,000) | 10 to 20 | + (+ is <25,000) | 20 to 60 | CCOC(=O)CNS(=O)(=O)c1ccc2c3c(cccc13)C(=O)N2CC [Compound 2] | – | – | –
3.2 ± 0.7 | + (+ is <25,000) | 10 to 20 | + (+ is <25,000) | 20 to 60 | O=C1Nc2ccc(S(=O)(=O)NCc3ccccn3)c3cccc1c23 [Compound 1] | – | – | –
4.5 ± 0.5 | + (+ is <25,000) | 10 to 20 | ++ (++ is 25,000−75,000) | 20 to 60 | CCN1C(=O)c2cccc3c(S(=O)(=O)NC[C@@H]4CCCO4)ccc1c23 [Compound 11] | – | – | –

SMILES | % Phosphatase Activity ABI2 (ABI2) [%] | Stimulation of the interaction between PYL1 and PP2C (binding signal) (His6-PYL1 / biotin-PP2C) | EC50 (His6-PYR1 / biotin-ABI1) [µM] | Stimulation of the interaction between PYL3 and PP2C (binding signal) (His6-PYL3 / biotin-PP2C) | EC50 (His6-PYR1 / biotin-ABI2) [µM] | Promotion of PYL1 interaction with the three PP2Cs (His6-PYL1 / biotin-PP2C; [1]) | Agonist activity in wildtype PYL1 (His6-PYL1 / biotin-PP2C; wildtype PYL1) | Promotion of PYL3 interaction with the three PP2Cs (His6-PYL3 / biotin-PP2C; [1])
O=S(=O)(NCc1ccccn1)c1ccc(Br)c2ccccc12 [Pyrabactin, pyrabactin] | 1.5 ± 0.8 | – | 5 to 10 | – | 5 to 10 | promoted interaction | very weak | promoted interaction
